Reference: US20110150976A1, “TRANSDERMAL DELIVERY OF OLIGOSACCHARIDES” (TRANSPHARMA MEDICAL LTD., priority 2008, published 2011)
Where two headings read alike, the source gives them in different places.

Assays:
[1] = In-vitro dissolution of printed patches; assay type: physicochemical; settings: printed patches 5 mg fondaparinux with 3.6 mg NaCl, from lyophilized Arixtra
Protocol: As the printed patches were prepared following lyophilization of the Arixtra® for injection, 5 mg fondaparinux in each patch contained 3.6 mg of NaCl (42% of the total patch solids).

[2] = design: species or system pigs; settings: pig, in vivo
Protocol: Transdermal delivery of fondaparinux from a printed patch through micro-channels generated in pig skin by the […] apparatus was evaluated. The experiment included the following groups: • 1. […] To prepare the printed patches containing fondaparinux, a concentrated reconstituted solution of Arixtra® (fondaparinux sodium) was applied onto the patch and then air-dried. Each patch was affixed to the […] treated skin for 24 hours.

[3] = Histological assessment of skin after micro-channel generation and treatment with fondaparinux; assay type: in vivo; settings: pigs, 450 MCs/cm^2, dried patch 1.25 mg, biopsies 13 and 22.5 hours post application
Protocol: Histological assessments were performed in order to determine the effect of application of a high concentration of fondaparinux to skin in which micro-channels have been generated. Pigs were treated with […] apparatus to generate micro-channels at a density of 450 MCs/cm^2 (burst length of 6000 μsec). […] All biopsies (8 mm diameter) were fixed in 4% formaldehyde buffer for at least 48 hrs followed by staining with eosin and hematoxylin (H&E).

[4] = human; cited from earlier work
[5] = design: species or system pigs; settings: pig, in vivo; remark: listed apart in the source
Protocol: Transdermal delivery of fondaparinux from a silicon pouch containing the pentasaccharide in solution through micro-channels generated in pig skin by the […] apparatus was evaluated. The experiment included the following groups: • 1.

**Q.** Which “in-vitro dissolution of printed patches” value [1] does the source give for CO[C@H]1O[C@H](COS(=O)(=O)O)[C@@H](O[C@@H]2O[C@@H](C(=O)O)[C@@H](O[C@H]3O[C@H](COS(=O)(=O)O)[C@@H](O[C@@H]4O[C@H](C(=O)O)[C@@H](O[C@H]5O[C@H](COS(=O)(=O)O)[C@@H](O)[C@H](O)[C@H]5NS(=O)(=O)O)[C@H](O)[C@H]4O)[C@H](OS(=O)(=O)O)[C@H]3NS(=O)(=O)O)[C@H](O)[C@H]2OS(=O)(=O)O)[C@H](O)[C@H]1NS(=O)(=O)O [fondaparinux] here?
**A.** ~85%

**Q.** And the “bioavailability from printed patches” value ([2]; 5 mg)?
**A.** 11-17%

**Q.** And the “% BA (bioavailability)” value ([2]; sc, 1 mg)?
**A.** 100%

**Q.** What about the AUC ([2]; sc, 1 mg) of the same compound?
**A.** 291 1.25 ± 2242.07 ng*h/ml

**Q.** What about the Tmax ([2]; sc, 1 mg) of the same compound?
**A.** 2 h

**Q.** And the “abnormalities in the skin tissue (histology, H&E)” value [3]?
**A.** no abnormalities

**Q.** And the “signs of bleeding at the site of the treated skin (histology, H&E)” value [3]?
**A.** no signs of bleeding

**Q.** What about the half-life [4] of the same compound?
**A.** approximately 17 hours

**Q.** What about the AUC ([5]; sc, 1 mg) of the same compound?
**A.** 1533.33 ± 1303.96 ng·h/mL

**Q.** What about the Cmax ([5]; sc, 1 mg) of the same compound?
**A.** 235.72 ± 47.79 ng/mL

**Q.** What about the AUC ([5]; topical or ocular, 28 mg) of the same compound?
**A.** 5659.33 ± 956.94 ng·h/mL

**Q.** What about the Cmax ([5]; topical or ocular, 28 mg) of the same compound?
**A.** 709.74 ± 103.61 ng/mL
